Tested on: HeLa human cervical tumor cells (ATCC CCL-2)
Test: Proliferation Assay (crystal violet staining, 4 days)
Assay type: cell-based
Settings: 96 h, 4 days incubation, read-out: EO-PROLIF-HELA
Method: Biological Assay: Proliferation Assay
Cultivated HeLa human cervical tumor cells (ATCC CCL-2) were plated at a density of 3000 cells/well in a 96-well multititer plate in 200 μl DMEM/HAMS F12 medium supplemented with 2 mM L-Glutamine and 10% fetal calf serum. After 24 hours, the cells of one plate (zero-point plate) were stained with crystal violet (see below), while the medium of the other plates was replaced by fresh culture medium (200 μl), to which the test substances were added in various concentrations (0 μM, as well as in the range of 0.01-30 μM; the final concentration of the solvent dimethyl sulfoxide was 0.5%). The cells were incubated for 4 days in the presence of test substances. Cell proliferation was determined by staining the cells with crystal violet: the cells were fixed by adding 20 μl/measuring point of an 11% glutaric aldehyde solution for 15 minutes at room temperature. After three washing cycles of the fixed cells with water, the plates were dried at room temperature. The cells were stained by adding 100 μl/measuring point of a 0.1% crystal violet solution (pH 3.0). After three washing cycles of the stained cells with water, the plates were dried at room temperature. The dye was dissolved by adding 100 μl/measuring point of a 10% acetic acid solution. The extinction was determined by photometry at a wavelength of 595 nm. The change of cell number, in percent, was calculated by normalization of the measured values to the extinction values of the zero-point plate (=0%) and the extinction of the untreated (0 μm) cells (=100%). The IC50 values were determined by means of a 4 parameter fit using the company's own software.

Row | SMILES | IC50 [nM]
1 | Oc1ccc(-c2ccc3ncc(N4CCOCC4)nc3c2)cc1 [Example 3.5, 4-[3-(morpholin-4-yl)quinoxalin-6-yl]phenol] | 2510
2 | Oc1ccc(-c2ccc3ncc(N4CCN(c5ccncc5)CC4)nc3c2)cc1 [Example 3.15, 4-{3-[4-(pyridin-4-yl)piperazin-1-yl]quinoxalin-6-yl}phenol] | 2920
3 | CC(=O)Nc1ccc(-c2ccc3ncc(N4CCOCC4)nc3c2)cc1 [Example 1.73, N-{4-[3-(morpholin-4-yl)quinoxalin-6-yl]phenyl}acetamide] | 3000
4 | Cc1cc(-c2ccc3ncc(N4CCOCC4)nc3c2)cc(C)c1O [Example 1.108, 2,6-dimethyl-4-[3-(morpholin-4-yl)quinoxalin-6-yl]phenol] | 2320
5 | Oc1ccc(-c2ccc3ncc(N4CCN(c5cnccn5)CC4)nc3c2)cc1 [Example 3.17, 4-{3-[4-(pyrazin-2-yl)piperazin-1-yl]quinoxalin-6-yl}phenol] | 3870
6 | CNC(=O)c1ccc(-c2ccc3ncc(N4CCOCC4)nc3c2)cc1 [Example 1.47, N-methyl-4-[3-(morpholin-4-yl)quinoxalin-6-yl]benzamide] | 3000
7 | CN1CCN(Cc2ccc(NC(=O)Nc3ccc(-c4ccc5ncc(N6CCOCC6)nc5c4)cc3)cc2C(F)(F)F)CC1 [Example 1.71, 1-{4-[(4-methylpiperazin-1-yl)methyl]-3-(trifluoromethyl)phenyl}-3-{4-[3-(morpholin-4-yl)quinoxalin-6-yl]phenyl}urea] | 889
8 | O=C(Nc1ccccc1)c1ccc(-c2ccc3ncc(N4CCCCC4)nc3c2)cc1 [Example 2.90, N-phenyl-4-[3-(piperidin-1-yl)quinoxalin-6-yl]benzamide] | 3000
9 | CN1CCN(Cc2ccc(NC(=O)Nc3ccc(-c4ccc5ncc(N6CCCCC6)nc5c4)cc3)cc2C(F)(F)F)CC1 [Example 2.73, 1-{4-[(4-methylpiperazin-1-yl)methyl]-3-(trifluoromethyl)phenyl}-3-{4-[3-(piperidin-1-yl)quinoxalin-6-yl]phenyl}urea] | 1120
10 | Oc1ccc(-c2ccc3ncc(N4CCN(Cc5cccnc5)CC4)nc3c2)cc1 [Example 3.35, 4-{3-[4-(pyridin-3-ylmethyl)piperazin-1-yl]quinoxalin-6-yl}phenol] | 8250

Second part, the molecule after the results:

Row | IC50 [nM] | SMILES
11 | 3000 | O=C(Nc1ccc(-c2ccc3ncc(N4CCN(c5ccncc5)CC4)nc3c2)cc1)NC1CC1 [Example 8.3, 1-cyclopropyl-3-(4-{3-[4-(pyridin-4-yl)piperazin-1-yl]quinoxalin-6-yl}phenyl)urea]
12 | 3000 | O=C(Cc1ccccc1F)Nc1ccc(-c2ccc3ncc(N4CCN(Cc5cccnc5)CC4)nc3c2)cc1 [Example 9.2, 2-(2-fluorophenyl)-N-(4-{3-[4-(pyridin-3-ylmethyl)piperazin-1-yl]quinoxalin-6-yl}phenyl)acetamide]
13 | 8120 | O=C(Cc1cccc(C(F)(F)F)c1)Nc1ccc(-c2ccc3ncc(N4CCOCC4)nc3c2)cc1 [Example 4.13, N-{4-[3-(morpholin-4-yl)quinoxalin-6-yl]phenyl}-2-[3-(trifluoromethyl)phenyl]acetamide]
14 | 10000 | O=C(Cc1ccccc1)Nc1ccc(-c2ccc3ncc(N4CCOCC4)nc3c2)cc1 [Example 4.3, N-{4-[3-(morpholin-4-yl)quinoxalin-6-yl]phenyl}-2-phenylacetamide]
15 | 3930 | O=C(Nc1ccc(-c2ccc3ncc(N4CCOCC4)nc3c2)cc1)Nc1cccnc1 [Example 6.8, 1-{4-[3-(morpholin-4-yl)quinoxalin-6-yl]phenyl}-3-pyridin-3-ylurea]
16 | 3000 | CC(C(=O)Nc1ccc(-c2ccc3ncc(N4CCN(Cc5cccnc5)CC4)nc3c2)cc1)c1ccccc1 (stereo not drawn) [Example 9.3, 2-phenyl-N-(4-{3-[4-(pyridin-3-ylmethyl)piperazin-1-yl]quinoxalin-6-yl}phenyl)propanamide]
17 | 2610 | O=C(Cc1ccccc1)Nc1ccc(-c2ccc3ncc(N4CCN(c5ccncc5)CC4)nc3c2)cc1 [Example 7.1, 2-phenyl-N-{4-[3-(4-pyridin-4-yl-piperazin-1-yl)-quinoxalin-6-yl]-phenyl}-acetamide]
18 | 3000 | O=C(Cc1ccccc1)Nc1ccc(-c2ccc3ncc(N4CCN(Cc5cccnc5)CC4)nc3c2)cc1 [Example 9.1, 2-phenyl-N-{4-[3-(4-pyridin-3-ylmethyl-piperazin-1-yl)-quinoxalin-6-yl]-phenyl}-acetamide]
19 | 1710 | O=C(CC1CC1)Nc1ccc(-c2ccc3ncc(N4CCN(c5ccncc5)CC4)nc3c2)cc1 [Example 7.7, 2-cyclopropyl-N-(4-{3-[4-(pyridin-4-yl)piperazin-1-yl]quinoxalin-6-yl}phenyl)acetamide]
20 | 1430 | O=C(CCc1ccccc1)Nc1ccc(-c2ccc3ncc(N4CCN(c5ccncc5)CC4)nc3c2)cc1 [Example 7.4, 3-phenyl-N-(4-{3-[4-(pyridin-4-yl)piperazin-1-yl]quinoxalin-6-yl}phenyl)propanamide]
21 | 2790 | O=C(Cc1ccccn1)Nc1ccc(-c2ccc3ncc(N4CCN(c5ccncc5)CC4)nc3c2)cc1 [Example 7.6, 2-(pyridin-2-yl)-N-(4-{3-[4-(pyridin-4-yl)piperazin-1-yl]quinoxalin-6-yl}phenyl)acetamide]
22 | 10000 | O=C(NCc1ccccc1)Nc1ccc(-c2ccc3ncc(N4CCOCC4)nc3c2)cc1 [Example 6.6, 1-benzyl-3-{4-[3-(morpholin-4-yl)quinoxalin-6-yl]phenyl}urea]
23 | 2840 | O=C(Cc1ccccc1F)Nc1ccc(-c2ccc3ncc(N4CCN(c5ccncc5)CC4)nc3c2)cc1 [Example 7.2, 2-(2-fluorophenyl)-N-(4-{3-[4-(pyridin-4-yl)piperazin-1-yl]quinoxalin-6-yl}phenyl)acetamide]
24 | 2560 | CC(C(=O)Nc1ccc(-c2ccc3ncc(N4CCN(c5ccncc5)CC4)nc3c2)cc1)c1ccccc1 (stereo not drawn) [Example 7.3, 2-phenyl-N-(4-{3-[4-(pyridin-4-yl)piperazin-1-yl]quinoxalin-6-yl}phenyl)propanamide]

Reference: patent US9340528B2, “Substituted aminoquinoxalines as tyrosine threonine kinase inhibitors” (BAYER PHARMA AKTIENGESELLSCHAFT, priority 2009, dated 2016)
